Data as given in patent publication US20180228795A1, “COMBINATION THERAPY FOR CANCER” (Eli Lilly and Company, priority 2015, published 2018).

Experiments:
Experiment in all cases: Antitumor effects in PDX mouse model of TNBC
Assay type in all cases: in vivo
PDX TNBC Model CTG-0017 = conditions: PDX model CTG-0017; A 10 mg/kg SC BID 3 days on/4 off ×4; B 7.5 mg/kg PO BID×28; versus vehicle
Text: (§1) Establish PDX tumor models from viable human tumor tissue and serially passage in immunocompromised female mice a limited number of times. Using tumor fragments harvested from donor host animals, perform unilateral subcutaneous implants from a specific passage of the PDX tumor model on the flanks of the experimental animals. When tumor volumes reach approximately 150-250 mm^3 in size, randomize the animals by treatment arm by randomization techniques well known in the art and place into their respective treatment groups using 1 animal per treatment group (3 animals in an untreated group). Formulate CHK1 inhibitor, 5-(5-(2-(3-aminopropoxy)-6-methoxyphenyl)-1H-pyrazol-3-ylamino)pyrazine-2-carbonitrile methanesulfonate hydrate, (Compound A) every 14 days in 20% captisol (dissolved in water) and administer subcutaneously twice daily at a dose of 10 mg/kg on days 1/2/3 of a weekly cycle for 4 weeks (SC, BID [3 days on/4 off]×4). Formulate the PI3K/mTOR dual inhibitor, 8-[5-(1-hydroxy-1-methylethyl)pyridin-3-yl]-1-[(2S)-2-methoxypropyl]-3-methyl-1,3-dihydro-2H-imidazo[4,5-c]quinolin-2-one, (Compound B) weekly in 1% (HEC)/0.25% Tween 80 (Polysorbate 80)/0.05% Dow-Corning Antifoam 1510-US and administer by oral gavage twice-daily for 28 days (PO, BID×28) at a dose of 7.5 mg/kg. Dose combination treatment animals with both compounds according to the schedule described above for monotherapy, and dose vehicle treatment animals with vehicle according to the schedule for Compound B.
(§2) Test the combination of Compound A and Compound B, as well as their respective monotherapies, in 40 PDX models (Table 1) of TNBC. Assess antitumor efficacy of the treatment groups by measuring tumor volume via caliper measurements twice a week during the course of the study. Measure body weight twice weekly during the course of the study as a general indicator of tolerability.
(§3) Capture tumor size and body weight twice per week. Estimate tumor volume (V) by using the formula: V=(π/6)×L×W^2 where L=larger of measured diameter and W=smaller perpendicular diameter. Calculate relative tumor volume using the tumor volume measurement taken nearest to the last day of dosing for each animal (T), divided by the baseline tumor volume for that animal (T0), which is the volume recorded on or just prior to the first day of dosing, Y=T/T0. Calculate % ΔT/ΔC values using the formula % ΔT/ΔC=100(YT−1)/(YC−1), whereby YT or YC=geometric mean relative volume of the compound treated group or the control group, respectively. Tumor growth inhibition is observed in those instances where the calculated values for % ΔT/ΔC are less than 100% whereby greater inhibition results in smaller % ΔT/ΔC values. If ΔT<0, then a tumor regression value is calculated instead of % ΔT/ΔC whereby % Regression=100(YT−1). Note that negative values indicate regression. We collectively refer to % ΔT/ΔC and % Regression as % Response.
(§4) Examine relative tumor volume (final volume divided by baseline volume) on the last day of treatment or the last day on which data from all three treatment groups and vehicle is available, if it is earlier than the last day of treatment and at least 14 days after baseline. Expected additive relative volume is determined using the Bliss method (Bliss, C. I., Ann Appl Biol, 1939; 26(3):585-615). Specifically, denoting Y=relative volume, YExp=(Y1*Y2)/YV, where YExp=expected additive relative volume, Y1 and Y2 are the relative volumes in the single agent groups (Compound A and Compound B), and YV is the relative volume in the vehicle group. A range of additivity is defined around the expected additive relative volume via upper and lower limits as follows:
(§5) Yupper=max(2*YExp,YExp+0.2)
(§6) Ylower=min(YExp/2,YExp−0.2)
(§7) The upper limit of the range is the larger of 2-fold above or 20% above the expected additive relative volume, and the lower limit is the smaller of 2-fold below or 20% below the expected additive relative volume. […]

PDX TNBC Model CTG-1242 = conditions: PDX model CTG-1242; A 10 mg/kg SC BID 3 days on/4 off ×4; B 7.5 mg/kg PO BID×28; versus vehicle
Text: as §1, §2, §3, §4, §5, §6, §7

PDX TNBC Model CTG-0670 = conditions: PDX model CTG-0670; A 10 mg/kg SC BID 3 days on/4 off ×4; B 7.5 mg/kg PO BID×28; versus vehicle
Text: as §1, §2, §3, §4, §5, §6, §7

PDX TNBC Model ST821 = conditions: A 10 mg/kg SC BID 3 days on/4 off ×4, B 7.5 mg/kg PO BID×28, versus vehicle
Text: as §1, §2, §3, §4, §5, §6, §7

PDX TNBC Model ST575 = conditions: A 10 mg/kg SC BID 3 days on/4 off ×4, B 7.5 mg/kg PO BID×28, versus vehicle
Text: as §1, §2, §3, §4, §5, §6, §7

PDX TNBC Model CTG-0012 = conditions: PDX model CTG-0012; A 10 mg/kg SC BID 3 days on/4 off ×4; B 7.5 mg/kg PO BID×28; versus vehicle
Text: as §1, §2, §3, §4, §5, §6, §7

PDX TNBC Model CTG-1167 = conditions: PDX model CTG-1167; A 10 mg/kg SC BID 3 days on/4 off ×4; B 7.5 mg/kg PO BID×28; versus vehicle
Text: as §1, §2, §3, §4, §5, §6, §7

PDX TNBC Model CTG-0018 = conditions: PDX model CTG-0018; A 10 mg/kg SC BID 3 days on/4 off ×4; B 7.5 mg/kg PO BID×28; versus vehicle
Text: as §1, §2, §3, §4, §5, §6, §7

PDX TNBC Model CTG-1520 = conditions: PDX model CTG-1520; A 10 mg/kg SC BID 3 days on/4 off ×4; B 7.5 mg/kg PO BID×28; versus vehicle
Text: as §1, §2, §3, §4, §5, §6, §7

PDX TNBC Model MAXF 583 = conditions: PDX model MAXF 583; A 10 mg/kg SC BID 3 days on/4 off ×4; B 7.5 mg/kg PO BID×28; versus vehicle
Text: as §1, §2, §3, §4, §5, §6, §7

PDX TNBC Model CTG-1453 = conditions: PDX model CTG-1453; A 10 mg/kg SC BID 3 days on/4 off ×4; B 7.5 mg/kg PO BID×28; versus vehicle
Text: as §1, §2, §3, §4, §5, §6, §7

PDX TNBC Model MAXF 449 = conditions: PDX model MAXF 449; A 10 mg/kg SC BID 3 days on/4 off ×4; B 7.5 mg/kg PO BID×28; versus vehicle
Text: as §1, §2, §3, §4, §5, §6, §7

Compound | % Rsp. (% ΔT/ΔC or % Regression) (PDX TNBC Model CTG-0017) [%] | % Rsp. (% ΔT/ΔC or % Regression) (PDX TNBC Model CTG-1242) [%] | % Rsp. (% ΔT/ΔC or % Regression) (PDX TNBC Model CTG-0670) [%] | % Rsp. (% ΔT/ΔC or % Regression) (PDX TNBC Model ST821) [%] | % Rsp. (% ΔT/ΔC or % Regression) (PDX TNBC Model ST575) [%] | % Rsp. (% ΔT/ΔC or % Regression) (PDX TNBC Model CTG-0012) [%] | % Rsp. (% ΔT/ΔC or % Regression) (PDX TNBC Model CTG-1167) [%] | % Rsp. (% ΔT/ΔC or % Regression) (PDX TNBC Model CTG-0018) [%] | % Rsp. (% ΔT/ΔC or % Regression) (PDX TNBC Model CTG-1520) [%] | % Rsp. (% ΔT/ΔC or % Regression) (PDX TNBC Model MAXF 583) [%] | % Rsp. (% ΔT/ΔC or % Regression) (PDX TNBC Model CTG-1453) [%] | % Rsp. (% ΔT/ΔC or % Regression) (PDX TNBC Model MAXF 449) [%]
COc1cccc(OCCCN)c1-c1cc(Nc2cnc(C#N)cn2)n[nH]1.CS(=O)(=O)O [Compound A, 5-(5-(2-(3-aminopropoxy)-6-methoxyphenyl)-1H-pyrazol-3-ylamino)pyrazine-2-carbonitrile methanesulfonate hydrate] | 52.3 | 66.8 | 112.8 | −81.9 | −87.5 | 33.4 | 62.3 | −57.6 | 49.9 | 9.6 | 2.3 | −100.0
CO[C@@H](C)Cn1c(=O)n(C)c2cnc3ccc(-c4cncc(C(C)(C)O)c4)cc3c21 [Compound B, 8-[5-(1-hydroxy-1-methylethyl)pyridin-3-yl]-1-[(2S)-2-methoxypropyl]-3-methyl-1,3-dihydro-2H-imidazo[4,5-c]quinolin-2-one] | 28.1 | 107.3 | 117.6 | 78.5 | 51.3 | 49.0 | 65.8 | 86.0 | 61.2 | 121.1 | −6.9 | 34.7
